Numbers after ± are expanded uncertainties.

The nature of the data set: wn = mass fraction of the nth substance listed. The conditions noted are these: 101 kPa, Liquid, pycnometer.

The term mass density denotes the mass of a sample divided by its volume. With `NC(N)=O.O=P(O)(O)O` [urea phosphate] + O, the mass density is, setting by setting: (298.15 K, w1 = 0.538) 1260 ± 1 kg/m3; (328.15 K, w1 = 0.734) 1359 ± 2 kg/m3.

Take `N.O=P(O)(O)O` [ammonium dihydrogen phosphate] + O: the mass density is, setting by setting: (298.15 K, w1 = 0.293) 1164 ± 1 kg/m3; (328.15 K, w1 = 0.436) 1258 ± 1 kg/m3.

The values above are taken from the NIST ThermoML archive (doi:10.1016/j.fluid.2012.06.002).
